Measured values taken from patent publication US20080220066A1 (HENDERSON MORLEY PLC, priority 2005, published 2008).
Converted amounts (≈) assume the structure as drawn. Like-named read-outs stand apart in the source and are kept apart here.

How the values were obtained:
[1] = for Flux: Q24 divided by 24
Adenovirus = test: 50% plaque inhibitory concentration, Adenovirus; details: unidentified adenovirus, A549, read-out: Furosemide IC50
[2] = system: Herpes simplex virus (HSV); test: HSV standard plaque inhibition assay; assay type: cell-based; details: for IC50: Herpes simplex virus
Description: Using Herpes simplex virus (HSV), 50% plaque inhibitory dose (1D50) were established using the standard plaque inhibition assay.

**Q.** For `NS(=O)(=O)c1cc(C(=O)O)c(NCc2ccco2)cc1Cl` [Furosemide, 5-(Aminosulfonyl)-4-chloro-2-[(2-furanylmethyl)amino]benzoic acid], which “maximum concentrations observed in the receptor phase” value ([1]; 40:40:20 gels) is on record?
**A.** 543.60 µg/mL

**Q.** What about the Release date ([1]; Ampule Formulation) of the same compound?
**A.** 667 μg cm^−2 h^0.5

**Q.** What about the Q24 ([1]; Ampule Formulation (8% HPC)) of the same compound?
**A.** 2724 μg cm^−2

**Q.** And the Flux ([1]; Ampule Formulation)?
**A.** 111 μg cm^−2 h^−1

**Q.** What about the “% applied dose” value ([1]; Gel 1:1, pH 7) of the same compound?
**A.** 17.9%

**Q.** And the “Release Rate” value ([1]; Gel 1:1, pH 7)?
**A.** 7.18 μg cm^−2 h^0.5

**Q.** What about the Flux ([1]; Gel 1:1, pH 7) of the same compound?
**A.** 2.69 μg cm^−2 h^−1

**Q.** And the Q24 ([1]; Gel 1:1, prototype 40:40:20 mix, pH 7, 24 h)?
**A.** 64.63 μg cm^−2

**Q.** What about the Q24 ([1]; Gel 14:1 (F:D), prototype 40:40:20 mix, […] 981NF, pH 5, 24 h) of the same compound?
**A.** 543.60 μg cm^−2

**Q.** And the Flux ([1]; Gel 14:1, pH 5)?
**A.** 22.65 μg cm^−2 h^−1

**Q.** What about the “% applied dose” value ([1]; Gel 14:1, pH 5, assuming 2 g of gel in donor) of the same compound?
**A.** 8.7%

**Q.** What about the “Release Rate” value ([1]; Gel 14:1, pH 5, gradient of square root of time plot) of the same compound?
**A.** 124.51 μg cm^−2 h^0.5

**Q.** What about the “% applied dose” value ([1]; Gel 14:1, pH 7) of the same compound?
**A.** 5.9%

**Q.** What about the “Release Rate” value ([1]; Gel 14:1, pH 7) of the same compound?
**A.** 77.482 μg cm^−2 h^0.5

**Q.** And the Flux ([1]; Gel 14:1, pH 7)?
**A.** 15.24 μg cm^−2 h^−1

**Q.** And the “% applied dose” value ([1]; Gel 14:1, pH 9)?
**A.** 3.7%

**Q.** And the “Release Rate” value ([1]; Gel 14:1, pH 9)?
**A.** 43.389 μg cm^−2 h^0.5

**Q.** And the Flux ([1]; Gel 14:1, pH 9)?
**A.** 9.61 μg cm^−2 h^−1

**Q.** What about the Q24 ([1]; Gel 14:1, prototype 40:40:20 mix, pH 7, 24 h) of the same compound?
**A.** 365.65 μg cm^−2

**Q.** What about the Q24 ([1]; Gel 14:1, prototype 40:40:20 mix, pH 9, 24 h) of the same compound?
**A.** 230.69 μg cm^−2

**Q.** What about the Release date ([1]; HPC Formulation) of the same compound?
**A.** 2673 μg cm^−2 h^0.5

**Q.** And the Q24 ([1]; HPC Formulation (revised 50:40:10 gel, 8% HPC, pH 5, 14:1))?
**A.** 9085 μg cm^−2

**Q.** And the Flux ([1]; HPC Formulation)?
**A.** 388 μg cm^−2 h^−1

**Q.** And the Release date ([1]; Ultrez Formulation)?
**A.** 1027 μg cm^−2 h^0.5

**Q.** What about the Q24 ([1]; Ultrez Formulation (revised 50:40:10 gel, […] Ultrez, pH 5, 14:1)) of the same compound?
**A.** 6128 μg cm^−2

**Q.** And the Flux ([1]; Ultrez Formulation)?
**A.** 248 μg cm^−2 h^−1

**Q.** And the “reduction of release rate, 1:1 Gel versus 1:14 Gel” value ([1]; pH 7)?
**A.** 10.8 fold

**Q.** What about the IC50 (Adenovirus) of the same compound?
**A.** 440 ± 114 µg/mL (≈ 1330 µM)

**Q.** What about the IC50 ([2]; BHK-21, read-out: Furosemide IC50, host cell BHK21) of the same compound?
**A.** 800 µg/mL (≈ 2420 µM)

**Q.** And the “ICVT activity” value ([2]; HSV plaque inhibition assay)?
**A.** potent ICVT activity

**Q.** And the IC50 ([2]; read-out: Furosemide IC50, host cell Vero)?
**A.** 1000 µg/mL (≈ 3020 µM)

**Q.** And the “Virus particles per cell” value (feline herpesvirus; each drug at its IC50, alone or both combined, No Drug 50)?
**A.** 0.25

**Q.** What about the “production of infectious virus reduced by” value (feline herpesvirus; each drug at its IC50, individually or in combination) of the same compound?
**A.** 99.5%
